14 molecules from patent publication US12319675B2 (Artax Biopharma Inc., priority 2018, dated 2025) can be followed below.

Data set [1] in a line: Microsomal stability assay, mouse. Format: in vitro ADME. To be noted: mouse microsomes; for half-life: read-out: Microsomal Stability (T1/2 min) Mouse. The procedure:
(§1) Microsomal stability assays were performed using mouse, rat, and human […] according to methods well-known in the art. Microsomal stability results are shown in Table 2 for selected compounds of the invention. The compound numbers correspond to the compound numbers in Table 1. […] “N/A” indicates not assayed.

A short description of data set [2]: Microsomal stability assay, rat. The data set is classed as in vitro ADME. Particulars: rat microsomes; for half-life: read-out: Microsomal Stability (T1/2 min) Rat. As for the experimental part:
as §1

Data set [3] in a line: Microsomal stability assay, human. The data set is classed as in vitro ADME. Particulars: human microsomes; for half-life: read-out: Microsomal Stability (T1/2 min) Human. The procedure:
as §1

The target in data set [4] is Nck SH3 domain interaction with the proline rich sequence of TCR subunit CD3ε (Homo sapiens, UniProt P16333). Put plainly: Competitive binding, biosensor with Interferometric Optical Detection Method (IODM). To be noted: ratio of 1:1 between Nck SH3 domain and inhibitors; biotinylated CD3ε peptide on sensing surface. As for the experimental part:
Inhibition of Nck SH3 domain interaction with the proline rich sequence of TCR subunit CD3ε was measured by optical read-out of a biosensor based on the Interferometric Optical Detection Method (IODM), using established methods (WO 2010/026269; WO 2014/020159; Laguna, M. et al., Sensors, 2015, 15(8):19819-29; and Holgado, M. et al., Sensors, 2014, 14(2): 3675-89).
Briefly, a Biophotonic Cell (BICELL) based on Fabry-Perot interferometers was used as the photonic transducer. The BICELL was fabricated using SU8 in cyclopentanone according to known methods (e.g., Laguna, M. F. et al., Sensors, 2014, 14(4): 6695-6700). Cured film was then treated with 95% sulfuric acid for 10 seconds. Streptavidin was then immobilized on the sensing surface in phosphate buffered saline (PBS; pH 7.4) over 20 min at 37° C. followed by blocking of the surface with 5% skin milk in PBS (pH 7.4). Biotinylated CD3ε peptide (SEQ ID NO: 001) in PBS (pH 7.4) was incubated with the streptavidin coated film to biofunctionalize the sensing surface (20 min at 37° C.).
Competitive binding assays were performed to determine the affinity reaction of inhibitors. The screening was carried out using a ratio of 1:1 between Nck SH3 domain and inhibitors. The optical readout of the biosensor was accomplished by a Fourier transform visible-infrared (FT-VIS-IR) spectrometer. Competitive binding results are shown in Table 3 for selected compounds of the invention. The compound numbers correspond to the compound numbers in Table 1. Compounds having a designation of “A” provide an Increased Relative Optical Power (ΔIROP) of less than or equal to thirty percent (≤30%); compounds having a designation of “B” provide a ΔIROP of between thirty and fifty percent (>30% to ≤50%); compounds having a designation of “C” provide an ΔIROP of between fifty and seventy percent (>50% to ≤70%); and compounds having a designation of “D” provide a ΔIROP of greater than seventy percent (>70%).

Data set [5] concerns CD3 mediated phosphorylation of ZAP70 in Jurkat cells. Put plainly: CD3 mediated phosphorylation of ZAP70 in Jurkat cells (HTRF). The data set is classed as cell-based. To be noted: Jurkat cells stimulated with 20 μg/mL anti-CD3 antibody; for Emax: read-out: pZAP70 Inhibition - Maximum Percent Inhibition (% Inhibition); for IC50: read-out: pZAP70 Inhibition IC50. As for the experimental part: Inhibition of CD3 mediated phosphorylation of ZAP70 in Jurkat cells was measured by a cellular based Homogeneous Time-Resolved Fluorescence (HTRF) assay utilizing a Total ZAP-70 HTRF kit.
Briefly, Jurkat cells (˜1.3×10^6 cells/mL) were harvested on the day of experimentation. Cells were washed with PBS and resuspended in Assay Buffer (RPMI 1640 media plus 10% FBS) and counted.
Jurkat cells were seeded in Assay media at a total volume of 4 μL/well (40K cells/well) in a 384-low volume white flat bottom plate. The cells were then incubated at 37° C./5% CO2 for 30 minutes. The cells were then treated in duplicate with test compounds (3×) and reference compounds (3×) in a total volume of 4 μL, respectively. A compound dilution scheme is exemplified in FIG. 1.
The plate was then transferred to an incubator maintained at 37° C./5% CO2 for 2 minutes. Following incubation, cells were stimulated with 20 μg/mL of anti-CD3 antibody (1 mg/mL stock) and assay media was used to bring the total well volume 4 μL/well. The plate was then transferred to the incubator maintained at 37° C./5% CO2 for 2.5 minutes. Following incubation, 4 μL of lysis buffer (4×) provided in the kit was added to each well. The plate was then incubated at RT for 1 hour with gentle shaking. Following incubation, 4 μL of detection mix was added to each well and the plate was sealed with a plate sealer and left overnight at RT in the dark.
The Envision reader was set-up for Eu^3+ cryptate and fluorescence emission was read at two different wavelengths (620 nm and 665 nm). • Excitation filter: UV2(TRF) 320 nm • Emission filter: 665 nm • 2nd Emission filter: Europium 615 nm • Measurement height (mm): 6.5 • Excitation light (%): 100 • Delay (μs): 50 • Window time (μs): 400 • Time between flashes (μs): 2000 • Number of flashes: 100 • Number of flashes for 2nd detector: 100
The data is represented by the signal form the two wavelengths:
The ratio of the signal is calculated for each individual well:
The data was plotted using Graph Pad Prism. The significance between untreated vs. treated groups was assessed by One-way ANOVA and Bonferroni posttest comparing all columns in the graph.
ZAP70 IC50 results are shown in Table 6 for select compounds of the invention. The compound numbers correspond to the compound numbers in Table 1. […] “ND” indicates not determined.
ZAP70 percent maximum inhibition results are shown in Table 7 for select compounds of the invention. The compound numbers correspond to the compound numbers in Table 1.
(In general: Time-resolved FRET reads energy transfer from a long-lived donor to a nearby acceptor.)

Where [6] appears, read: Homo sapiens, maximum inhibition.

Read-outs that look alike come from different tables or passages of the source. A value given as a limit tells only on which side of the number the result lay.

`O=C(O)CCOc1ccc2c(c1)C(c1ccc(F)cc1)=C(C(=O)N1CCCC1)CO2` [Compound I-40, 3-((4-(4-fluorophenyl)-3-(pyrrolidine-1-carbonyl)-2H-chromen-6-yl)oxy)propanoic acid]: the half-life in data set [1], in data set [2] and in data set [3] was above 30 min in each case. Further, the “ΔIROP (Increased Relative Optical Power)” value in data set [4] was “D (a ΔIROP of greater than seventy percent (>70%))”. For the same molecule, the Emax in data set [5] (setting [6]) was in the range of 30 to 40%. Further, in data set [5] (Homo sapiens), the IC50 (as a rule, the concentration needed to halve the response being measured) is 1 to 10 nM.

With `CC(C)Oc1ccc2c(c1)C(c1ccc(F)cc1)=C(CN1CCCC1)CO2` [Compound I-14], the results for the half-life in data set [1], in data set [2] and in data set [3] were below 10 min, below 10 min and 10 to 30 min, respectively. Also, the “ΔIROP (Increased Relative Optical Power)” value in data set [4] was “C (an ΔIROP of between fifty and seventy percent (>50% to ≤70%))”. The Emax in data set [5] (setting [6]) was in the range of 30 to 40%. In addition, in data set [5] (Homo sapiens), the IC50 was below 1 nM.

With `O=C(O)CCOc1ccc2c(c1)C(c1ccc(F)cc1)=C(CN1CCCC1)CO2` [Compound I-33, 3-((4-(4-fluorophenyl)-3-(pyrrolidin-1-ylmethyl)-2H-chromen-6-yl)oxy)propanoic Acid], the half-life in data set [1], in data set [2] and in data set [3] was above 30 min each time. In data set [4], the “ΔIROP (Increased Relative Optical Power)” value is recorded as “A (an Increased Relative Optical Power (ΔIROP) of less than or equal to thirty percent (≤30%))”. Moreover, the Emax in data set [5] (setting [6]) was above 50%. The IC50 in data set [5] (Homo sapiens) was in the range of 1 to 10 nM.

As for `CC(C)c1ccc2c(c1)C(c1ccc(F)cc1)=C(CN1CCCC1)CO2` [Compound I-15], the values for the half-life in data set [1], in data set [2] and in data set [3] were below 10 min, below 10 min and 10 to 30 min, respectively. The “ΔIROP (Increased Relative Optical Power)” value in data set [4] was “C (an ΔIROP of between fifty and seventy percent (>50% to ≤70%))”. In addition, the Emax in data set [5] (setting [6]) fell in the range of 30 to 40%. Further, in data set [5] (Homo sapiens), the IC50 is below 1 nM.

As to `CN1CCN(C(=O)C2=C(c3ccc(F)cc3)c3cc(OC(F)F)ccc3OC2)CC1` [Compound I-3], the half-life in data set [1] was below 10 min; in data set [2] it was below 10 min; in data set [3] it was 10 to 30 min. The “ΔIROP (Increased Relative Optical Power)” value in data set [4] was “B (a ΔIROP of between thirty and fifty percent (>30% to ≤50%))”. Further, the Emax in data set [5] (setting [6]) was at most 30%. In addition, the IC50 in data set [5] (Homo sapiens) was below 1 nM.

Take `Fc1ccc(C2=C(c3nc(-c4ccccc4)no3)COc3ccc(OCC4CC4)cc32)cc1` [Compound I-12]: the half-life in data set [1] is above 30 min; in data set [2], above 30 min; in data set [3], 10 to 30 min. Also, in data set [4], the “ΔIROP (Increased Relative Optical Power)” value is “C (an ΔIROP of between fifty and seventy percent (>50% to ≤70%))”. The Emax in data set [5] (setting [6]) was at most 30%.

`CC(C)c1ccc2c(c1)C(c1ccc(F)cc1)=C(C(=O)N1CCN(C)CC1)CO2` [Compound I-24]: the half-life in data set [1], in data set [2] and in data set [3] was below 10 min in each case. Further, the “ΔIROP (Increased Relative Optical Power)” value in data set [4] is “C (an ΔIROP of between fifty and seventy percent (>50% to ≤70%))”. Moreover, the Emax in data set [5] (setting [6]) was 40 to 50%. Also, the IC50 in data set [5] (Homo sapiens) was in the range of 1 to 10 nM.

Consider `[2H]C([2H])([2H])Oc1ccc2c(c1)C(c1ccc(F)cc1)=C(CN1CCCC1)CO2` [Compound I-13], for which the half-life in data set [1] is below 10 min; in data set [2] it was below 10 min; in data set [3], 10 to 30 min. In data set [4], the “ΔIROP (Increased Relative Optical Power)” value is recorded as “A (an Increased Relative Optical Power (ΔIROP) of less than or equal to thirty percent (≤30%))”. Besides, the Emax in data set [5] (setting [6]) fell in the range of 40 to 50%. Moreover, the IC50 in data set [5] (Homo sapiens) lay within 1 to 10 nM.

As for `COc1ccc2c(c1)C(c1ccc(C(F)(F)F)cc1)=C(CN1CCCC1)CO2` [Compound I-20], the half-life was below 10 min in data set [1], below 10 min in data set [2] and 10 to 30 min in data set [3]. Besides, the “ΔIROP (Increased Relative Optical Power)” value in data set [4] is “B (a ΔIROP of between thirty and fifty percent (>30% to ≤50%))”. In addition, the Emax in data set [5] (setting [6]) was in the range of 40 to 50%. For the same molecule, the IC50 in data set [5] (Homo sapiens) is below 1 nM.

Regarding “4-((4-(4-fluorophenyl)-6-(trifluoromethoxy)-2H-chromen-3-yl)methyl)morpholine [Compound I-16]”, in data set [1] (half-life), the “Microsomal Stability (T1/2 min) Mouse” value is “B (a half-life of between ten (10) and thirty (30) minutes)”. The “Microsomal Stability (T1/2 min) Rat” value in data set [2] (half-life) is recorded as “C (a half-life of less than ten (<10) minutes)”. The “Microsomal Stability (T1/2 min) Human” value in data set [3] (half-life) is “A (a half-life of greater than thirty (>30) minutes)”. Also, in data set [4], the “ΔIROP (Increased Relative Optical Power)” value is “B (a ΔIROP of between thirty and fifty percent (>30% to ≤50%))”. In addition, the “pZAP70 Inhibition - Maximum Percent Inhibition (% Inhibition)” value in data set [5] (maximum inhibition) was “C (a percent maximum inhibition of between forty and greater than thirty percent (40%≥x>30%))”. The IC50 in data set [5] is below 1 nM.

In the case of `O=C(C1=C(c2ccc(F)cc2)c2cc(OC(F)F)ccc2OC1)N1CCCC1` [Compound I-1], the half-life in data set [1], in data set [2] and in data set [3] was below 10 min each time. Besides, the “ΔIROP (Increased Relative Optical Power)” value in data set [4] was “C (an ΔIROP of between fifty and seventy percent (>50% to ≤70%))”.

Consider `CN1CCN(C(=O)C2=C(c3ccc(F)cc3)c3cc(Cl)ccc3OC2)CC1` [Compound I-25], for which the half-life in data set [1] is below 10 min; in data set [2], below 10 min; in data set [3], 10 to 30 min. Also, in data set [4], the “ΔIROP (Increased Relative Optical Power)” value was “B (a ΔIROP of between thirty and fifty percent (>30% to ≤50%))”.

Turning to `COc1ccc2c(c1)C(c1ccc(C(F)(F)F)cc1)=C(C(=O)N1CCN(C)CC1)CO2` [Compound I-29], the half-life was below 10 min in data set [1], 10 to 30 min in data set [2] and below 10 min in data set [3]. Besides, the “ΔIROP (Increased Relative Optical Power)” value in data set [4] is “B (a ΔIROP of between thirty and fifty percent (>30% to ≤50%))”.

Turning to `Fc1ccc(C2=C(CN3CCCC3)COc3ccc(C(F)(F)F)cc32)cc1` [Compound I-17, 1-((4-(4-fluorophenyl)-6-(trifluoromethyl)-2H-chromen-3-yl)methyl)pyrrolidine], the half-life was above 30 min in data set [1], 10 to 30 min in data set [2] and above 30 min in data set [3]. Further, the “ΔIROP (Increased Relative Optical Power)” value in data set [4] is “C (an ΔIROP of between fifty and seventy percent (>50% to ≤70%))”.
